Experiments:
[1] = cited from earlier work
[2] = stability / hygroscopicity on standing at ambient conditions; format: physicochemical; settings: for hygroscopicity / stability at room temperature and humidity: standard room temperature and humidity; for stability under ambient conditions: thermogravimetric analysis after 5 hours standing at ambient conditions
Experimental: The partially dehydrated material was allowed to stand for about 5 hours.

crystal size by SEM = format: physicochemical
From the text: In contrast, the crystals of monohydrate form 2 are much smaller, and in a narrower size range, than those of monohydrate form 1, typically 5 μm or less in edge length.

SMILES	hygroscopicity / stability at room temperature and humidity [2]	stability under ambient conditions [2]	further results
NCCCC[C@H](N[C@@H](CCc1ccccc1)C(=O)O)C(=O)N1CCC[C@H]1C(=O)O [lisinopril, 1-(N^2-[(S)-1-carboxy-3-phenylpropyl]-L-lysyl)-L-proline]			time to peak serum concentrations ([1]; following oral administration): ≤ 7 h; effective half-life of accumulation ([1]; on multiple dosing): about 12.6 hours
NCCCC[C@H](N[C@@H](CCc1ccccc1)C(=O)O)C(=O)N1CCC[C@H]1C(=O)O [monohydrate lisinopril form 1, 1-(N^2-[(S)-1-carboxy-3-phenylpropyl]-L-lysyl)-L-proline]	stable at a standard room temperature and humidity	stable under ambient conditions	crystal size (length / edge length) (crystal size by SEM; listed as monohydrate form 1): 50 to 500 μm
NCCCC[C@H](N[C@@H](CCc1ccccc1)C(=O)O)C(=O)N1CCC[C@H]1C(=O)O.O [Preparation 3]	strongly hygroscopic	regained the lost weight and to have become a dihydrate	
NCCCC[C@H](N[C@@H](CCc1ccccc1)C(=O)O)C(=O)N1CCC[C@H]1C(=O)O [monohydrate lisinopril form 2, 1-(N^2-[(S)-1-carboxy-3-phenylpropyl]-L-lysyl)-L-proline]			crystal size (length / edge length) (crystal size by SEM; listed as monohydrate form 2): ≤ 5 μm

Reference: patent US6468976B1 (AstraZeneca AB, priority 2001, dated 2002)
